Reference: US6864056B1 (priority 2000, dated 2005)

Tested on: dAU6 NH3 oligonucleotide substrate
Assay type: biochemical

gelonin
level of activity (fluorescence normalized with negative control, FIG. 3): highest level of activity
